Assays:
[1] = tested on: methicillin-resistant Staphylococcus aureus (MRSA); assay: In vitro bactericidal assay against MRSA isolates (viable CFU/mL after treatment); details: average of three MRSA isolates, 24 hours, varying CA concentration
Protocol: Note that efficacy is reported in terms of the viable bacterial concentration (in CFU/mL) remaining after 24 hours of treatment with the drug product (in compliance with CLSI guidelines).
In this example, bacteria (MRSA isolates) are put onto fresh plates and allowed to grow for 30 hours. A suspension inoculum is made from the plates (e.g., a 1 McFarland solution in sterile water), from which the turbidity may be optically read. A standard inoculum may then be cultured in media and 100 μL of that solution combined with 100 μL of drug product and grown at various dilutions for 16-20 hrs. Duplicates may then be examined (e.g., following pelleting at 7,000 RPM for 15 min, resuspended in PBS and serial dilutions plated and grown for 24 hrs.). Duplicate plates at multiple dilutions may then be imaged and colonies counted.
For example, in each of these examples in FIG. 20, the fatty acid to amino acid in the compositions was at a ratio of about 1:0.76 (fatty acid:amino acid) by weight when diluted and used to treat MRSA. GS-1, GS-2 and GS-3 all had fatty acid:amino acid aqueous mixtures with approximately 32% w/w of total active pharmaceutical ingredients (APIs), which were diluted at 1:128 in water, resulting in a concentration of about 0.25% w/w total APIs. […]

bacteria = assay: Variation of the amino acid combined with UCA, bactericidal effect; format: cell-based
Text: Thus in some variations, the amino acid may be limited to a charged (and particularly the positively charged) amino acids, such as amino acid having an electrically charged basic side chain.

| Structure (SMILES) | effect of CA on efficacy of the UCA and LARG composition [1] | bactericidal effect when used as the amino acid with the fatty acid (bacteria) |
| --- | --- | --- |
| CCCCCCCCCCCCCCCCO [CA, cetyl alcohol] | clear inhibitory effect | – |
| N=C(N)NCCC[C@@H](N)C(=O)O [D-Arginine] | – | ineffective |

Source: patent publication US12383524B2, “Therapeutic compositions of undecylenic acid and arginine” (Wintermute Biomedical, Inc., priority 2018, dated 2025)
